The target of test [1] is T1, human mAChR M1 (Homo sapiens, UniProt P11229).
T1 sequence (P11229 1-460): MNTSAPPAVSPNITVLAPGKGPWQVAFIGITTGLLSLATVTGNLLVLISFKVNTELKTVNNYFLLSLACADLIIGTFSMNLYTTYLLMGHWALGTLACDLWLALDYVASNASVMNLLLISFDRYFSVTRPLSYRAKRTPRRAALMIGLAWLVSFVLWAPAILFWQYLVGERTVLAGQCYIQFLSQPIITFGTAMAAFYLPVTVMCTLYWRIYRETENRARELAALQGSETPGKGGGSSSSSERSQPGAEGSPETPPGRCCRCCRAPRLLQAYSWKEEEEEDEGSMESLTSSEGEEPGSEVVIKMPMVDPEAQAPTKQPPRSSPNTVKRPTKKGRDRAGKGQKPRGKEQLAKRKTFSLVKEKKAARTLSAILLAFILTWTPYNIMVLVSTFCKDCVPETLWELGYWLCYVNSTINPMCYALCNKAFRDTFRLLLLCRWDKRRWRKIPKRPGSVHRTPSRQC
As to the kind of experiment: mAChR M1 cell-based functional assay (calcium mobilization), PAM mode: increase in the EC20 acetylcholine response. An outline of the steps:
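CHO-K1 cells stably expressing hM1, Fluo-4 loaded, read by FDSS calcium flux at 1 Hz. Compound (11-point 1:3 CRC) added at 4 s, EC20 acetylcholine at 144 s, EC80 at 230 s. PAM activity taken as concentration-dependent increase in EC20 ACh response, fitted by four-parameter logistic for EC50/Emax.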
Background: Calcium flux is commonly read through the fluorescence of an indicator in the cells.

Test [2] has as its target T1, human mAChR M1. The test is described as follows: mAChR M1 cell-based functional assay (calcium mobilization), agonist mode: compound alone, Emax relative to acetylcholine maximum. Particulars: for Agonist Activity Human M1 EC50 / EC50: human mAChR M1; for Emax: relative to the maximum for acetylcholine; call rule not given here. Put shortly: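 CHO-K1 cells stably expressing hM1 were loaded with Fluo-4 AM, and calcium flux was read as fluorescence ratio. Compound was added alone from an 11-point 1:3 curve, and the agonist response was fitted with a four-parameter logistic. Emax is expressed relative to the acetylcholine maximum.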

Bounds are passed on as bounds.

Broadly, the EC50 is the concentration giving half of the maximal effect. Usually Emax stands for the size of the effect at its maximum, as opposed to the concentration needed. As for `[2H]C1([2H])c2ncccc2C(=O)N1Cc1c(F)cc(-c2cc(F)cc3nn(C([2H])([2H])[2H])cc23)cc1F` [Compound 86, 6-(2,6-difluoro-4-(6-fluoro-2-(methyl-d3)-2H-indazol-4-yl)benzyl)-6,7-dihydro-5H-pyrrolo[3,4-b]pyridin-5-one-7,7-d2], on human mAChR M1 [1], the EC50 was 237 nM and the Emax was determined as 46%. Besides, at human mAChR M1 [2], the “Agonist Activity Human M1 EC50” value was “Inactive” and the maximal response (Emax) worked out at 2%.
Take `[2H]C1([2H])c2ncccc2C(=O)N1Cc1c(F)cc(-c2cccc3c2cnn3C2COC2)cc1F` [Compound 66, 6-(2,6-difluoro-4-(1-(oxetan-3-yl)-1H-indazol-4-yl)benzyl)-6,7-dihydro-5H-pyrrolo[3,4-b]pyridin-5-one-7,7-d2]: at human mAChR M1 [1], the 50% effective concentration (EC50) came to 2170 nM and the Emax was determined as 74%. Moreover, on human mAChR M1 [2], the “Agonist Activity Human M1 EC50” value is given as “Inactive” and the Emax worked out at 2%.
The like results for `[2H]C1([2H])c2ncccc2C(=O)N1Cc1c(F)cc(-c2ccc3nn(C)cc3c2)cc1OCC(C)C` [Compound 211, 6-(2-fluoro-6-isobutoxy-4-(2-methyl-2H-indazol-5-yl)benzyl)-6,7-dihydro-5H-pyrrolo[3,4-b]pyridin-5-one-7,7-d2] were, in that order, 1290 nM, 88%, “Inactive” and 3%.
Consider `[2H]C1([2H])c2ncccc2C(=O)N1Cc1c(F)cc(-c2ccc(OC3CCOC3)c3nn(C)cc23)cc1F` (stereo not shown) [Compound 127, 6-(2,6-difluoro-4-(2-methyl-7-((tetrahydrofuran-3-yl)oxy)-2H-indazol-4-yl)benzyl)-6,7-dihydro-5H-pyrrolo[3,4-b]pyridin-5-one-7,7-d2], for which, on human mAChR M1 [1], the concentration for a half-maximal effect (EC50) turned out to be 486 nM and the maximal response (Emax) was determined as 65%. For the same compound, at human mAChR M1 [2], the EC50 is 8400 nM and the Emax amounted to 21%.
Turning to `[2H]c1nnc2cccc(-c3ccc(CN4C(=O)c5cccnc5C4([2H])[2H])cc3)n12` [Compound 240, 6-(4-([1,2,4]triazolo[4,3-a]pyridin-5-yl-3-d)benzyl)-6,7-dihydro-5H-pyrrolo[3,4-b]pyridin-5-one-7,7-d2], at human mAChR M1 [1], the EC50 was above 10000 nM and the Emax came out at 27%. Moreover, on human mAChR M1 [2], the “Agonist Activity Human M1 EC50” value is reported as “Inactive” and the maximal response (Emax) amounted to 3%.
The like results for `[2H]C([2H])([2H])Oc1cc(-c2cc(F)c(CN3C(=O)c4cccnc4C3([2H])[2H])c(F)c2)c2cnn(C([2H])([2H])[2H])c2c1` [Compound 88, 6-(2,6-difluoro-4-(6-(methoxy-d3)-1-(methyl-d3)-1H-indazol-4-yl)benzyl)-6,7-dihydro-5H-pyrrolo[3,4-b]pyridin-5-one-7,7-d2] were, in that order, 2700 nM, 37%, “Inactive” and 2%.
In the case of `[2H]C1([2H])c2ncccc2C(=O)N1Cc1ccc(-c2ccc(O[C@@H]3CCOC3)c3nn(C)cc23)cc1F` [Compound 151, (R)-6-(2-fluoro-4-(2-methyl-7-((tetrahydrofuran-3-yl)oxy)-2H-indazol-4-yl)benzyl)-6,7-dihydro-5H-pyrrolo[3,4-b]pyridin-5-one-7,7-d2], on human mAChR M1 [1], the EC50 amounted to 694 nM and the maximum response (Emax) came out at 76%. Also, on human mAChR M1 [2], the EC50 was at least 10000 nM and the maximum response (Emax) came out at 22%.
On to `[2H]C1([2H])c2ncccc2C(=O)N1Cc1ccc(-c2cc3cn(C)nc3cc2F)cc1` [Compound 15, 6-(4-(6-fluoro-2-methyl-2H-indazol-5-yl)benzyl)-6,7-dihydro-5H-pyrrolo[3,4-b]pyridin-5-one-7,7-d2], for which, on human mAChR M1 [1], the concentration for a half-maximal effect (EC50) turned out to be 1770 nM and the maximum response (Emax) came out at 51%. Moreover, at human mAChR M1 [2], the “Agonist Activity Human M1 EC50” value was “Inactive” and the Emax is 2%.
With `[2H]C1([2H])c2ncccc2C(=O)N1Cc1c(C)cc(-c2ccc3nn(C([2H])([2H])[2H])cc3c2)cc1F` [Compound 160, 6-(2-fluoro-6-methyl-4-(2-(methyl-d3)-2H-indazol-5-yl)benzyl)-6,7-dihydro-5H-pyrrolo[3,4-b]pyridin-5-one-7,7-d2], on human mAChR M1 [1], the concentration for a half-maximal effect (EC50) was 396 nM and the Emax was 83%. Also, on human mAChR M1 [2], the concentration for a half-maximal effect (EC50) is at least 10000 nM and the Emax was 13%.
For the compound `[2H]C1([2H])c2ncccc2C(=O)N1Cc1c(F)cc(-c2cc(F)c3nn(C)cc3c2)cc1F` [Compound 7, 6-(2,6-difluoro-4-(7-fluoro-2-methyl-2H-indazol-5-yl)benzyl)-6,7-dihydro-5H-pyrrolo[3,4-b]pyridin-5-one-7,7-d2], at human mAChR M1 [1], the EC50 is 952 nM and the Emax stood at 53%. Also, at human mAChR M1 [2], the “Agonist Activity Human M1 EC50” value is “Inactive” and the maximum response (Emax) was 4%.
Regarding `[2H]C1([2H])c2ncccc2C(=O)N1Cc1c(F)cc(-c2cccc3nn(C)cc23)cc1N1CCC1` [Compound 221, 6-(2-(azetidin-1-yl)-6-fluoro-4-(2-methyl-2H-indazol-4-yl)benzyl)-6,7-dihydro-5H-pyrrolo[3,4-b]pyridin-5-one-7,7-d2], on human mAChR M1 [1], the EC50 is 2690 nM and the Emax was 82%. In addition, on human mAChR M1 [2], the “Agonist Activity Human M1 EC50” value is listed as “Inactive” and the Emax turned out to be 2%.
The like results for `[2H]C1([2H])c2ncccc2C(=O)N1Cc1c(F)cc(-c2ccc(OC3CN(C4CCCCC4)C3)c3nn(C)cc23)cc1F` [Compound 189, 6-(4-(7-((1-cyclohexylazetidin-3-yl)oxy)-2-methyl-2H-indazol-4-yl)-2,6-difluorobenzyl)-6,7-dihydro-5H-pyrrolo[3,4-b]pyridin-5-one-7,7-d2] were, in that order, 629 nM, 72%, “Inactive” and 3%.
As to `[2H]C1([2H])c2ncccc2C(=O)N1Cc1c(F)cc(-c2ccc3nn(C)cc3c2)cc1C1CC1` [Compound 193, 6-(2-cyclopropyl-6-fluoro-4-(2-methyl-2H-indazol-5-yl)benzyl)-6,7-dihydro-5H-pyrrolo[3,4-b]pyridin-5-one-7,7-d2], the EC50 on human mAChR M1 [1] came to 266 nM; at human mAChR M1 [2], 9830 nM. The Emax on human mAChR M1 [1] was found to be 88%; at human mAChR M1 [2], 11%.
The like results for `[2H]C1([2H])c2ncccc2C(=O)N1Cc1c(C)cc(-c2ccc(OC)c3nn(C([2H])([2H])[2H])cc23)cc1F` [Compound 159, 6-(2-fluoro-4-(7-methoxy-2-(methyl-d3)-2H-indazol-4-yl)-6-methylbenzyl)-6,7-dihydro-5H-pyrrolo[3,4-b]pyridin-5-one-7,7-d2] were, in that order, 164 nM, 6240 nM, 83% and 31%.
On to `[2H]C1([2H])c2ncccc2C(=O)N1Cc1c(F)cc(-c2ccc(OCS(C)(=O)=O)c3nn(C)cc23)cc1F` [Compound 186, 6-(2,6-difluoro-4-(2-methyl-7-((methylsulfonyl)methoxy)-2H-indazol-4-yl)benzyl)-6,7-dihydro-5H-pyrrolo[3,4-b]pyridin-5-one-7,7-d2], for which, at human mAChR M1 [1], the concentration giving a half-maximal response (EC50) was found to be 391 nM and the maximum response (Emax) was 72%. Besides, at human mAChR M1 [2], the EC50 came out at 7230 nM and the maximal effect (Emax) is 15%.
Turning to `[2H]C1([2H])c2ncccc2C(=O)N1Cc1c(F)cc(-c2ccc(OC3CCC3)c3nn(C)cc23)cc1F` [Compound 125, 6-(4-(7-cyclobutoxy-2-methyl-2H-indazol-4-yl)-2,6-difluorobenzyl)-6,7-dihydro-5H-pyrrolo[3,4-b]pyridin-5-one-7,7-d2], on human mAChR M1 [1], the 50% effective concentration (EC50) came to 382 nM and the maximal response (Emax) was found to be 72%. For the same compound, on human mAChR M1 [2], the 50% effective concentration (EC50) is at least 10000 nM and the maximum response (Emax) amounted to 14%.
Turning to `[2H]C1([2H])c2ncccc2C(=O)N1Cc1c(F)cc(-c2cc(C)cc3nn(C)cc23)cc1F` [Compound 32, 6-(4-(2,6-dimethyl-2H-indazol-4-yl)-2,6-difluorobenzyl)-6,7-dihydro-5H-pyrrolo[3,4-b]pyridin-5-one-7,7-d^2], at human mAChR M1 [1], the EC50 turned out to be 594 nM and the maximal response (Emax) was determined as 86%. On human mAChR M1 [2], the concentration giving a half-maximal response (EC50) is 5460 nM and the Emax was found to be 16%.
On to `[2H]C1([2H])c2ncccc2C(=O)N1Cc1c(F)cc(-c2ccc3nn(C)cc3c2)cc1F` [Compound 8, 6-(2,6-difluoro-4-(2-methyl-2H-indazol-5-yl)benzyl)-6,7-dihydro-5H-pyrrolo[3,4-b]pyridin-5-one-7,7-d^2], for which, on human mAChR M1 [1], the concentration for a half-maximal effect (EC50) came to 639 nM and the maximal effect (Emax) worked out at 62%. Also, at human mAChR M1 [2], the “Agonist Activity Human M1 EC50” value was “Inactive” and the Emax stood at 4%.
Turning to `[2H]C1([2H])c2ncccc2C(=O)N1Cc1c(F)cc(-c2ccc(O[C@H]3CCOC3)c3nn(C)cc23)cc1F` [Compound 136, (S)-6-(2,6-difluoro-4-(2-methyl-7-((tetrahydrofuran-3-yl)oxy)-2H-indazol-4-yl)benzyl)-6,7-dihydro-5H-pyrrolo[3,4-b]pyridin-5-one-7,7-d2], at human mAChR M1 [1], the EC50 came to 245 nM and the maximal effect (Emax) turned out to be 74%. On human mAChR M1 [2], the concentration for a half-maximal effect (EC50) was determined as 8420 nM and the maximal response (Emax) was 28%.

For the origin of these results see US20240228489A1, “POSITIVE ALLOSTERIC MODULATORS OF THE MUSCARINIC ACETYLCHOLINE RECEPTOR M1” (Vanderbilt University, priority 2021, published 2024).
